According to patent US20090004185A1, “AMINO-SUBSTITUTED QUINAZOLINE DERIVATIVES AS INHIBITORS OF BETA-CATENIN/TCF-4 PATHWAY AND CANCER TREATMENT AGENTS” (WYETH, priority 2007, published 2009):

What was measured:
[1] = tested on: β-catenin/Tcf-4; test: cells; type: cell-based; settings: Homo sapiens, 24 hours of incubation with compound, ratio Firefly/Renilla luciferase
Excerpt: Background cell line: SW480 colorectal carcinoma DNA constructs:
1) Tcf-4-Luc: Tcf-4 binding sites driving Firefly Luciferase in the pGL3 vector—to measure the activity of β-catenin/Tcf-4;
(§1) 2) SV40-Luc: SV40 binding site driving Firefly Luciferase in the pGL3 vector—as a control for non-specific inhibitors; and
(§2) 3) SV40-R-Luc: SV40 binding site driving Renilla Luciferase in the pGL3 vector—as an internal control for cell number and toxicity.
This screen uses 3 cell lines derived from SW480 and selected to contain the above luciferase reporters integrated into their chromosomes as follows: […]
(§3) Cells: Tcf22C11 and SV5A8 were grown in the presence of 500 μg/ml G418 and Tcf 33.13 was grown in the presence of 500 μg/ml G418+125 μg/ml Zeocin to maintain the integrated reporters. The cells were trypsinized and plated at 1×10^4 cells/well in opaque 96 well plates.
The compounds were diluted as follows: The compounds were stored frozen in dimethyl sulfoxide (DMSO) at […]. Compounds were initially titrated in DMSO to make a 1000×DMSO stock solution. Compounds were then diluted 1:25 into media/DMSO (DMEM+10% FBS+9% DMSO). Using the Biomek Multimek, the diluted compounds were mixed well and immediately added to the plated cells in a 1:40 dilution. The final concentration of DMSO in the assay plates was 0.316% DMSO.
(§4) Assay Readout: The luciferase signal was detected using a luciferase detection kit from Promega. Until December 2003, Promega's Dual-Luciferase® Reporter (DLR™) Assay System was used to detect luciferase activity. Briefly, after 24 hours of incubation with compound, culture media was removed by aspiration and 20 ul of passive lysis buffer (Promega) per well was added. The plates were shaken for 15 min. Firefly substrate was then added and the resulting luminescence was immediately read on a CCD camera imaging device or a luminometer. After quantifying the firefly luminescence, the reaction was quenched, and the Renilla luciferase reaction was initiated simultaneously by adding Stop & Glo® Reagent to the same sample. Renilla luciferase was then quantified using the CCD camera or luminometer.
Promega's Dual-Glo™ Luciferase Assay System can be used for luciferase detection. […] Briefly, after 24 hours of incubation with compound, culture media was removed by aspiration and 75 ul of fresh medium was added. Add 75 ul of Dual-Glo Luciferase Reagent (Promega) to each well and mix by shaking for 10 minutes on a plate shaker. Then, measure the firefly luminescence on a CCD camera imaging device or a luminometer. After quantifying the firefly luminescence, add 75 ul of Dual-Glo Stop & Glo Reagent (Promega) to each well and mix for 10 minutes. Renilla luciferase was then quantified using the CCD camera or luminometer.
(§5) This assay was meant to confirm primary leads and determine IC50s. Compounds were tested at titrated dilutions. The raw data for this assay was reported in protocol 2463-B. Protocol 2463-C contains the IC50 calculations based on the raw data. The data calculations were done as follows:
(§6) The data was expressed as % of control for both Firefly and Renilla Luciferase. The ratio of FF/Renilla (F/R) was then calculated and averaged between duplicate plates. The data was then plotted using LSW Data Analysis in Microsoft Excel. IC50s were determined by plotting the data in the LSW Data Analysis program using model 33. The IC50s (nM) for all three cell lines were reported.

[2] = tested on: SV40-Luc; test: SV40-Luc control luciferase reporter assay, SV 5A8 cell line (SV40-Luc and SV40-R-Luc), control for non-specific inhibitors; type: cell-based, human; settings: Homo sapiens, SV5A8, 24 h, SV 5A8 cells derived from SW480; 24 hours of incubation with compound; ratio Firefly/Renilla luciferase
Excerpt: Background cell line: SW480 colorectal carcinoma DNA constructs: […]
as §1, §2
This screen uses 3 cell lines derived from SW480 and selected to contain the above luciferase reporters integrated into their chromosomes as follows:
SV 5A8—SV40-Luc and SV40-R-Luc
as §3
Compounds: 20-24 hours after cell plating, compounds were added at titrated concentrations between […]. The compounds were diluted as follows: The compounds were stored frozen in dimethyl sulfoxide (DMSO) at […]. Compounds were initially titrated in DMSO to make a 1000×DMSO stock solution. Compounds were then diluted 1:25 into media/DMSO (DMEM+10% FBS+9% DMSO). Using the Biomek Multimek, the diluted compounds were mixed well and immediately added to the plated cells in a 1:40 dilution. The final concentration of DMSO in the assay plates was 0.316% DMSO.
as §4
Promega's Dual-Glo™ Luciferase Assay System can be used for luciferase detection. It was similar to the DLR Assay, however, unlike the DLR which has to be read immediately due to decaying signal, the signal in the Dual-Glo™ Luciferase Assay was stable for up to 2 hours. Briefly, after 24 hours of incubation with compound, culture media was removed by aspiration and 75 ul of fresh medium was added. Add 75 ul of Dual-Glo Luciferase Reagent (Promega) to each well and mix by shaking for 10 minutes on a plate shaker. Then, measure the firefly luminescence on a CCD camera imaging device or a luminometer. After quantifying the firefly luminescence, add 75 ul of Dual-Glo Stop & Glo Reagent (Promega) to each well and mix for 10 minutes. Renilla luciferase was then quantified using the CCD camera or luminometer.
as §5, §6

[3] = SW480, 24 h, Tcf 33.13 cells derived from SW480
[4] = Tcf22C11, 24 h, Tcf 22C11 cells derived from SW480

Row | SMILES | IC50 [1, 3] [nM] | IC50 [1, 4] [nM] | IC50 [2] [nM]
1 | Cc1ccc2c(NCc3ccc(NC(=O)C4CCN(Cc5ccccc5)CC4)cc3)nc(N(C)CCc3ccccn3)nc2c1 [Example 145, 1-benzyl-N-{4-[({7-methyl-2-[methyl(2-pyridin-2-ylethyl)amino]quinazolin-4-yl}amino)methyl]phenyl}piperidine-4-carboxamide] | 1230 | 1350 | > 16700
2 | Cc1ccc2nc(N3CCCCCC3)nc(NCc3ccc(NC(=O)c4ccc(F)cc4)cc3)c2c1 [Example 56, N-(4-{[(2-azepan-1-yl-6-methylquinazolin-4-yl)amino]methyl}phenyl)-4-fluorobenzamide] | 2010 | 1740 | > 5170
3 | Cc1ccc2c(NCc3ccc(NC(=O)C4CCN(Cc5ccc(Cl)cc5)CC4)cc3)nc(N(C)C)nc2c1 [Example 253, 1-(4-chlorobenzyl)-N-[4-({[2-(dimethylamino)-7-methylquinazolin-4-yl]amino}methyl)phenyl]piperidine-4-carboxamide] | 255 | 390 | > 4060
4 | COCCN(C)c1nc(NCc2ccc(NC(=O)c3ccc(F)cc3)cc2)c2ccc(C)cc2n1 [Example 220, 4-fluoro-N-{4-[({2-[(2-methoxyethyl)(methyl)amino]-7-methylquinazolin-4-yl}amino)methyl]phenyl}benzamide] | 682 | 1140 | > 8510
5 | CNc1nc(NCc2ccc(NC(=O)c3ccc(-c4ccccc4)cc3)cc2)c2ccccc2n1 [Example 15, N-[4-({[2-(methylamino)quinazolin-4-yl]amino}methyl)phenyl]biphenyl-4-carboxamide] | – | – | > 5440
6 | Cc1ccc2c(NCc3ccc(NC(=O)c4ccc(F)cc4)cc3)nc(N3CCOCC3)nc2c1 [Example 207, 4-fluoro-N-(4-{[(7-methyl-2-morpholin-4-ylquinazolin-4-yl)amino]methyl}phenyl)benzamide] | – | – | > 10600
7 | CN(C)c1nc(NCc2ccc(NC(=O)c3ccc(F)cc3)cc2)c2ccc(I)cc2n1 [Example 86, N-[4-({[2-(dimethylamino)-7-iodoquinazolin-4-yl]amino}methyl)phenyl]-4-fluorobenzamide] | – | – | > 18500
8 | Cc1ccc2c(NCc3ccc(NC(=O)c4ccc(F)cc4)cc3)nc(N3CCCC3)nc2c1 [Example 209, 4-fluoro-N-(4-{[(7-methyl-2-pyrrolidin-1-ylquinazolin-4-yl)amino]methyl}phenyl)benzamide] | – | – | > 2740
9 | CNc1nc(NCc2ccc(NC(=O)c3ccc(Cl)nc3)cc2)c2ccccc2n1 [Example 3, 6-chloro-N-[4-({[2-(methylamino)quinazolin-4-yl]amino}methyl)phenyl]nicotinamide] | – | – | > 2980
10 | CNc1nc(NCc2ccc(NC(=O)c3ccnc(Cl)c3)cc2)c2ccccc2n1 [Example 4, 2-chloro-N-[4-({[2-(methylamino)quinazolin-4-yl]amino}methyl)phenyl]isonicotinamide] | – | – | > 2980
11 | CNc1nc(NCc2ccc(NC(=O)c3ccc(Cl)nc3)cc2)c2ccc(C)cc2n1 [Example 264, 6-chloro-N-[4-({[7-methyl-2-(methylamino)quinazolin-4-yl]amino}methyl)phenyl]nicotinamide] | – | – | > 1440
12 | CNc1nc(NCc2ccc(NC(=O)c3ccc(F)cc3)cc2)c2cccc(C)c2n1 [Example 190, 4-fluoro-N-[4-({[8-methyl-2-(methylamino)quinazolin-4-yl]amino}methyl)phenyl]benzamide] | – | – | > 3010
13 | Cc1ccc2c(NCc3ccc(NC(=O)c4ccc(F)cc4)cc3)nc(N3CCCCC3)nc2c1 [Example 206, 4-fluoro-N-(4-{[(7-methyl-2-piperidin-1-ylquinazolin-4-yl)amino]methyl}phenyl)benzamide] | – | – | > 2660

Further lines, results first:

Row | IC50 [1, 3] [nM] | IC50 [1, 4] [nM] | IC50 [2] [nM] | SMILES
14 | 986 | 894 | > 5420 | Cc1ccc2c(N[C@H](C)c3ccc(NC(=O)c4ccc(F)cc4)cc3)nc(N(C)C)nc2c1 [Example 272, (R)—N-(4-(1-(2-(dimethylamino)-7-methylquinazolin-4-ylamino)ethyl)phenyl)-4-fluorobenzamide]
15 | 5430 | 9640 | > 9470 | CCN(CC)c1nc(NCc2ccc(NC(=O)c3ccc(Cl)cc3)cc2)c2cc(C(F)(F)F)ccc2n1 [Example 165, 4-chloro-N-[4-({[2-(diethylamino)-6-(trifluoromethyl)quinazolin-4-yl]amino}methyl)phenyl]benzamide]
16 | 1260 | 2290 | > 11300 | CCN(CC)c1nc(NCc2ccc(NC(=O)c3ccc(F)cc3)cc2)c2ccccc2n1 [Example 122, N-[4-({[2-(diethylamino)quinazolin-4-yl]amino}methyl)phenyl]-4-fluorobenzamide]
17 | 4480 | 7170 | > 21900 | O=C(Nc1ccc(CNc2nc(N3CCOCC3)nc3ccccc23)cc1)c1ccc(F)cc1 [Example 117, 4-fluoro-N-(4-{[(2-morpholin-4-ylquinazolin-4-yl)amino]methyl}phenyl)benzamide]
18 | 3260 | 8650 | > 18300 | Cc1ccc2nc(N3CCN(c4ccccn4)CC3)nc(NCc3ccc(NC(=O)c4ccc(F)cc4)cc3)c2c1 [Example 55, 4-fluoro-N-[4-({[6-methyl-2-(4-pyridin-2-ylpiperazin-1-yl)quinazolin-4-yl]amino}methyl)phenyl]benzamide]
19 | 2960 | > 2410 | > 19200 | CN(C)c1nc(NCc2ccc(NC(=O)c3ccc(F)cc3)cc2)c2ccc(-c3ccccc3C=O)cc2n1 [Example 98, N-[4-({[2-(dimethylamino)-7-(2-formylphenyl)quinazolin-4-yl]amino}methyl)phenyl]-4-fluorobenzamide]
20 | – | – | > 1380 | CNc1nc(NCc2ccc(NC(=O)c3ccc(C(F)(F)F)cc3)cc2)c2ccccc2n1 [Example 20, N-[4-({[2-(methylamino)quinazolin-4-yl]amino}methyl)phenyl]-4-(trifluoromethyl)benzamide]
21 | – | – | > 10300 | Cc1ccc2c(NCc3ccc(NC(=O)c4ccc(F)cc4)cc3)nc(N3CCN(C)CC3)nc2c1 [Example 204, 4-fluoro-N-[4-({[7-methyl-2-(4-methylpiperazin-1-yl)quinazolin-4-yl]amino}methyl)phenyl]benzamide]
22 | – | – | > 5980 | CNc1nc(NCc2ccc(NC(=O)c3cccc(Cl)c3)cc2)c2ccccc2n1 [Example 11, 3-chloro-N-[4-({[2-(methylamino)quinazolin-4-yl]amino}methyl)phenyl]benzamide]
